What follows are compounds tested on human melanocytes of the SKMel type (assay: Depigmentation: melanin production by melanocytes in culture, melanin content by spectrophotometry). Details: 5 μM, human line SKMel, kojic acid = 1.
Assay type: cell-based
Protocol: Various synthesized molecules were tested in order to determine their depigmenting power. The idea was to evaluate the effect of each of them on the production of melanin by melanocytes maintained in a culture medium.
For these tests, 2 lines of melanocytes were cultivated, human melanocytes of the SKMel type on the one hand and a murine line of the B16F10 type on the other hand. Here, we only show the results obtained on the human line.
The melanin content was determined by spectrophotometry, after 3 days of incubation in the presence of the molecule to be tested and cell lysis.
Kojic acid, a well-known depigmenting agent is used as a reference for making a hierarchy of the results.
For each measurement, the analyses were repeated. The indicated value corresponds to the calculated average. When the experiments are repeated, the average variation coefficient of the residual pigmentation percentage is of the order of 3% (comprised between 1.5% and 6% (for 3 tests).
This list is neither exhaustive nor limiting and the same type of results was obtained for the other molecules.
In the case of `C[S+]([O-])CCCCN=C=S` (stereo not shown), the “Eff./Ref. to 5 μM (relative activity with respect to kojic acid at the same concentration)” value is reported as 22.
For `[O-][S+](CCCCN=C=S)c1ccccc1` (stereo not shown), the “Eff./Ref. to 5 μM (relative activity with respect to kojic acid at the same concentration)” value was 10.
For `CC[S+]([O-])CCCCN=C=S` (stereo not shown), the “Eff./Ref. to 5 μM (relative activity with respect to kojic acid at the same concentration)” value was 12.
In the case of `CS(=O)(=O)CCCCN=C=S`, the “Eff./Ref. to 5 μM (relative activity with respect to kojic acid at the same concentration)” value is reported as 15.
With `CC(=O)CCCCN=C=S` the “Eff./Ref. to 5 μM (relative activity with respect to kojic acid at the same concentration)” value was 5.
In the case of `C[S+]([O-])CCCCNC(=S)NCCCC[S+](C)[O-]` (stereo not shown) [Example 9, 1,3-bis-(4-(methylsulfinyl)butyl)-thiourea], the “Eff./Ref. to 5 μM (relative activity with respect to kojic acid at the same concentration)” value is reported as 27.
For `O=c1cc(CO)occ1O` [kojic acid, Kojic acid, reference compound], the “Eff./Ref. to 5 μM (relative activity with respect to kojic acid at the same concentration)” value was 1.
`C[S+]([O-])CCCCN` (stereo not shown) [reference compound] was tested, and the “Eff./Ref. to 5 μM (relative activity with respect to kojic acid at the same concentration)” value was 11.
For `C1CCNCC1` [reference compound], the “Eff./Ref. to 5 μM (relative activity with respect to kojic acid at the same concentration)” value was 17.
With `C1COCCN1` [reference compound] the “Eff./Ref. to 5 μM (relative activity with respect to kojic acid at the same concentration)” value was 5.

Same assay, conditions: 100 μM, human line SKMel
`C[S+]([O-])CCCCNC(=S)NCCCC[S+](C)[O-]` (stereo not shown) [Example 9, 1,3-bis-(4-(methylsulfinyl)butyl)-thiourea] showed a residual pigmentation percentage of 14%.
`O=c1cc(CO)occ1O` [kojic acid, Kojic acid, reference compound] was tested, and the residual pigmentation percentage was 73%.

Same assay, conditions: Homo sapiens, SK-MEL3, 72 h, read-out: Resid. Pig. (%) (percentage of residual pigmentation)
`CC[S+]([O-])CCCCN=C=S` (stereo not shown) gave an activity at 5 µM of 63%.

Same assay, conditions: SK-MEL3, 72 h; 5 μM, human line SKMel, 3 days of incubation; melanin vs control culture (cells alone); read-out: Resid. Pig. (%) (percentage of residual pigmentation)
Work on `C[S+]([O-])CCCCN=C=S` (stereo not shown) yielded an activity at 5 µM of 34%.
`[O-][S+](CCCCN=C=S)c1ccccc1` (stereo not shown) gave an activity at 5 µM of 71%.
In the case of `CS(=O)(=O)CCCCN=C=S`, the activity at 5 µM is reported as 54%.
`CC(=O)CCCCN=C=S` was tested, and the activity at 5 µM was 84%.
In the case of `C[S+]([O-])CCCCNC(=S)NCCCC[S+](C)[O-]` (stereo not shown) [Example 9, 1,3-bis-(4-(methylsulfinyl)butyl)-thiourea], the activity at 5 µM is reported as 20%.
Compound `O=c1cc(CO)occ1O` [kojic acid, Kojic acid, reference compound] has an activity at 5 µM of 97%.
`C[S+]([O-])CCCCN` (stereo not shown) [reference compound] gave an activity at 5 µM of 67%.
With `C1CCNCC1` [reference compound] the activity at 5 µM was 50%.
Compound `C1COCCN1` [reference compound] has an activity at 5 µM of 86%.

Reference: patent US20130142739A1, “PROCESS FOR THE SYNTHESIS OF ISOTHIOCYANATES AND DERIVATIVES THEREOF AND USES OF SAME” (Auriga International, priority 2010, published 2013)
